{"source": "patent US10111937B2", "about": "“Method of reducing accumulation of intracellular tingible body macrophages” (THE REGENTS OF THE UNIVERSITY OF MICHIGAN, priority 2008, dated 2018)", "molecules": {"B1": {"name": "Recombinant glycosylated mouse LPLA2: Recombinant glycosylated mouse LPLA2 produced by HEK293 cells (protein, UniProt Q8VEB4 34-412, looked up)", "Lysosomal phospholipase A and …": "AQRHPPVVLVPGDLGNQLEAKLDKPKVVHYLCSKKTDSYFTLWLNLELLLPVIIDCWIDNIRLVYNRTSRATQFPDGVDVRVPGFGETFSMEFLDPSKRNVGSYFYTMVESLVGWGYTRGEDVRGAPYDWRRAPNENGPYFLALREMIEEMYQMYGGPVVLVAHSMGNVYMLYFLQRQPQVWKDKYIHAFVSLGAPWGGVAKTLRVLASGDNNRIPVIGPLKIREQQRSAVSTSWLLPYNHTWSHEKVFVYTPTTNYTLRDYHRFFRDIGFEDGWFMRQDTEGLVEAMTPPGVELHCLYGTGVPTPNSFYYESFPDRDPKICFGDGDGTVNLESVLQCQAWQSRQEHRVSLQELPGSEHIEMLANATTLAYLKRVLLEP", "modifications": "HEK293-produced glycosylated", "notes": "Recombinant glycosylated mouse LPLA2 produced by HEK293 cells"}, "B2": {"name": "His-tagged mouse LPLA2: His-tagged recombinant mouse lysosomal phospholipase A2 applied to LPLA2 null alveolar macrophages (protein)", "chain": "B1 Lysosomal phospholipase A and …", "modifications": "left off: small tags and cut ends", "notes": "His-tagged recombinant mouse lysosomal phospholipase A2 applied to LPLA2 null alveolar macrophages"}}, "key": {"recombinant mouse LPLA2 [1]": {"molecular_target": "T1, recombinant mouse LPLA2 (Mus musculus, UniProt Q8VEB4)", "T1 sequence (Q8VEB4 34-412)": "B1 Lysosomal phospholipase A and …", "assay": "1-O-acylceramide synthase (transacylase) activity of recombinant LPLA2 on liposomes, 1-O-oleoyl-NAS by HPTLC", "format": "biochemical", "details": "DOPC/sulfatide/NAS liposomes vs DOPC/NAS, pH 4.5, 5-45 min at 37° C.; FIGS. 11A and 11B", "method": "To address this possibility, the 1-O-acylceramide synthase activity of LPLA2 was studied in liposomes in which the anionic lipid content was varied by the addition of sulfatide, a negatively charged, sulfate containing glycolipid that is not a substrate for LPLA2. Di-octanoyl-PC (DOPC) was used as the liposomal substrate. The reaction mixture contained 48 mM sodium citrate (pH 4.5), 10 μg/ml BSA, liposomes (127 μM phospholipid) and 14.5 ng/ml of recombinant mouse LPLA2 in 500 μl of total volume. Liposomes consisting of DOPC/NAS (3:1, molar ratio) or DOP/sulfatide/NAS (3:0.3:1, molar ratio) were incubated with the enzyme for 5, 10, 15, 30 and 45 min at 37° C. The reaction products were extracted and separated by an HPTLC plate using a solvent system consisting of chloroform/acetic acid (9:1, v/v). The reaction product, 1-O-oleoyl-NAS, quantified by scanning the plate, was plotted against time (FIG. 11A). Liposomes consisting of DOPC/galactosylceramide/NAS or DOPC/sulfatide/NAS with a different molar ratio were incubated with the recombinant enzyme at 37° C. (FIG. 11B)."}, "recombinant mouse LPLA2 [2]": {"molecular_target": "T1, recombinant mouse LPLA2", "assay": "Co-sedimentation of LPLA2 with liposomes (ultracentrifugation, SDS-PAGE)", "format": "binding", "details": "DOPC or DOPC/sulfatide (10:1) liposomes; 33 μM amiodarone; FIGS. 13B and 13C", "description": "Liposomes consisting of DOPC or DOPC/sulfatide (10:1, molar ratio) were incubated with varying amounts of recombinant mouse LPLA2 in 500 μl of 48 mM Na-citrate (pH 4.5) for 30 min on ice (FIG. 13A). […] The reaction mixtures were centrifuged for 1 h at 150,000 g at 4° C. The concentration of DOPC in these assays was 127 μM. The resultant precipitates were briefly washed with cold 50 mM Na-citrate (pH 4.5) and dissolved with 40 μl of SDS-polyacrylamide gel electrophoresis sampling buffer. The samples were separated by using 12% SDS-polyacrylamide gel. After electrophoresis, LPLA2 was detected by staining with CBB."}, "LPLA2 [3]": {"molecular_target": "T2, LPLA2 (Homo sapiens, UniProt Q8NCC3)", "T2 sequence (Q8NCC3 34-412)": "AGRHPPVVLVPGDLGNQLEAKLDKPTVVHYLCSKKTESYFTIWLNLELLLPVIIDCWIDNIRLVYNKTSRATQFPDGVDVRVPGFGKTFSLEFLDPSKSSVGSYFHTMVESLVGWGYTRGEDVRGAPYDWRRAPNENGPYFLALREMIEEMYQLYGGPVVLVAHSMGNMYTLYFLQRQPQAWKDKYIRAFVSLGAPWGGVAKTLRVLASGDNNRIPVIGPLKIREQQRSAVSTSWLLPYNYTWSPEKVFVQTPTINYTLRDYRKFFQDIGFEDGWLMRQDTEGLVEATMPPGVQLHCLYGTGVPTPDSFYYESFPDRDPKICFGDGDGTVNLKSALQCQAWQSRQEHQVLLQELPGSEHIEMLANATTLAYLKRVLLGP", "details": "background description; cited from earlier work"}, "LPLA2 [4]": {"molecular_target": "T3, LPLA2 (Canis lupus familiaris, UniProt Q6XPZ3)", "T3 construct": "endogenous in cells; host or cells: MDCK cells", "T3 sequence (Q6XPZ3 32-408)": "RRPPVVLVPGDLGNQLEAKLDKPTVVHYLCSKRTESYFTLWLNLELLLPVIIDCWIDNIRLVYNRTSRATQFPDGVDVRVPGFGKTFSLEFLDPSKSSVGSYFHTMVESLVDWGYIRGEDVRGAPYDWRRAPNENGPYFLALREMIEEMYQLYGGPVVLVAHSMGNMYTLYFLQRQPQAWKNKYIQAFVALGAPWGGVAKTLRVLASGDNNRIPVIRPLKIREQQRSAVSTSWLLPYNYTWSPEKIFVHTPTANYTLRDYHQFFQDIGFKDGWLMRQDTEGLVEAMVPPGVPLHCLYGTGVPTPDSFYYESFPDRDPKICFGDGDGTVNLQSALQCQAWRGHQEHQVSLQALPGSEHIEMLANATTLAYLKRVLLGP", "assay": "LPLA2 activity in MDCK cells treated with cationic amphiphilic drugs, measured as transacylation of N-acetylsphingosine", "format": "cell-based", "description": "LPLA2 activity was measured as the transacylation of N-acetylsphingosine. […] The major cellular phospholipids were assayed following 1 or 7 days of exposure to the CAD."}, "[5]": {"tested_on": "acidic transacylation of ceramide", "details": "lysosomal fraction of cells; earlier observation; cited from earlier work"}, "[6]": {"tested_on": "LPLA2 null alveolar macrophages", "assay": "Uptake of recombinant LPLA2 into LPLA2 null alveolar macrophages (Western blotting, confocal microscopy, enzyme activity)", "format": "cell-based, mouse", "source_text": "Recombinant glycosylated mouse LPLA2 produced by HEK293 cells was applied to LPLA2-deficient (LPLA2−/−) mouse alveolar macrophages. […] Thus, the predominant pathway for uptake of exogenous LPLA2 is via the mannose receptor. (Abe et al., J. Immunol, 181(11):7873-81, 2008).\nThe ability of macrophages from LPLA2−/− mice to recognize, endocytose, and traffic recombinant LPLA2 was studied as follows. LPLA2 null alveolar macrophages were exposed to His-tagged mouse LPLA2 for 1 day at concentrations varying between 0.3 and 10 μg/ml. Cell incorporation was measured by Western blotting and confocal microscopy using either anti-His antibody or a monoclonal antibody raised to LPLA2.\n(§1) Finally, the ability of the recombinant enzyme to “rescue” the cellular phenotype was confirmed by measuring the cellular phospholipid content."}, "[7]": {"tested_on": "LPLA2 null alveolar macrophages", "details": "Abe et al. J. Immunol 2008; cited from earlier work"}, "[8]": {"tested_on": "LPLA2 null alveolar macrophages", "assay": "Rescue of cellular phospholipid content in LPLA2 null alveolar macrophages by recombinant enzyme", "format": "cell-based, mouse", "details": "LPLA2 null alveolar macrophages treated with enzyme", "source_text": "as §1"}}, "data": [{"molecule": "sulfatide", "values": [{"measurement": "transacylation activity in presence of anionic lipid", "setting": "recombinant mouse LPLA2 [1]", "value": "time dependent increase in the transacylation activity"}, {"measurement": "physical association between LPLA2 and liposomes", "setting": "recombinant mouse LPLA2 [2]", "value": "increased"}]}, {"molecule": "CCCCc1oc2ccccc2c1C(=O)c1cc(I)c(OCCN(CC)CC)c(I)c1", "note": "[amiodarone]", "values": [{"measurement": "physical association between LPLA2 and liposomes", "setting": "recombinant mouse LPLA2 [2]", "value": "inhibited"}]}, {"molecule": "O=C1O/C(=C/Br)CCC1c1cccc2ccccc12", "note": "(centres unmarked) [bromoenollactone]", "values": [{"measurement": "inhibition of LPLA2 enzyme activity", "setting": "LPLA2 [3]", "value": "do not inhibit the enzyme activity"}]}, {"molecule": "CCCCCCCCCC(=O)NC(CN1CCOCC1)C(O)c1ccccc1", "note": "(centres unmarked) [PDMP, 1-phenyl-2-decanoylamino-3-morpholino-1-propanol]", "values": [{"measurement": "inhibition of LPLA2 activity as measured by ceramide transacylation", "setting": "LPLA2 [4]; MDCK cells treated for 1 or seven days, FIG. 10A", "value": "concentration dependent inhibition of LPLA2 activity"}, {"measurement": "IC50 for enzyme inhibition", "setting": "LPLA2 [4]; MDCK cells, no numbers given", "value": "comparable IC50s"}, {"measurement": "inhibition of acidic transacylation of ceramide", "setting": "[5]", "value": "inhibit acidic transacylation of ceramide"}]}, {"molecule": "COC1O[C@H](CO)[C@@H](O)[C@H](O)[C@@H]1O", "note": "(stereo partly drawn) [α-Methyl-mannoside, α-methyl-mannoside]", "values": [{"measurement": "blocking of incorporation of recombinant LPLA2", "setting": "[6]; 10 mM, 1-O-acyl-ceramide synthase activity, immunoblotting, confocal microscopy", "value": "blocked the incorporation of LPLA2"}, {"measurement": "suppression of uptake of exogenous LPLA2", "setting": "[7]", "value": "significantly suppressed"}]}, {"molecule": "CCCCC/C=C\\C/C=C\\C/C=C\\C/C=C\\CCCC(=O)C(F)(F)F", "note": "[nonadecyltetraenyl trifluoromethyl ketone]", "values": [{"measurement": "inhibition of LPLA2 enzyme activity", "setting": "LPLA2 [3]", "value": "do not inhibit the enzyme activity"}]}, {"molecule": "B1", "values": [{"measurement": "uptake of exogenous LPLA2 into LPLA2−/− alveolar macrophages", "setting": "[7]", "value": "occurred in a concentration-dependent manner"}]}, {"molecule": "B2", "values": [{"measurement": "cellular LPLA2 (cell incorporation)", "setting": "[6]; 1 day at 0.3 to 10 μg/ml, Western blotting, confocal microscopy, enzyme activity", "value": "concentration dependent increase in cellular LPLA2"}, {"measurement": "co-localization with lysosome protein Lamp-1", "setting": "[6]; cells stained with anti-LPLA2 and Lamp-1 antibodies", "value": "readily detected"}, {"measurement": "cell phosphatidylcholine and phosphatidylethanolamine content", "setting": "[8]", "value": "concentration dependent decrease in cell phosphatidylcholine and phosphatidylethanolamine"}]}]}
